Experimental data reported in patent US20230218618A1, “ADMINISTRATION OF SUMO-ACTIVATING ENZYME INHIBITOR AND ANTI-CD38 ANTIBODIES” (MILLENNIUM PHARMACEUTICALS, INC., priority 2020, published 2023).

Experiments:
[1] = tested on: NCI-H929 human multiple myeloma cell line; test: Study 5: NCI-H929 xenograft human multiple myeloma subcutaneous tumor model; type: in vivo, SCID mice; settings: for Tumor growth compared to vehicle (pairwise comparison): I-263a 7.5 mg/kg BIW 2 weeks (p > 0.05), daratumumab 2.5, 7.5 or 20 mg/kg BIW 2 weeks alone or combined with I-263a (p < 0.001); for GRI%: vs vehicle
Experimental: (§1) Low tumor volumes can cause problems with the data analysis, so all measurements below 25 cubic mm (including 0 values) were excluded from the analysis. After this exclusion step, the tumor volume was assumed to follow an exponential growth model. More specifically, for a given animal and treatment group,
(§2) Pairwise comparisons were performed, where the mean growth rates were compared for various pairs of treatment conditions. The results were summarized using the growth rate inhibition (GRI). Suppose µT and µC are the mean tumor growth rates for the treatment and reference groups, respectively. Define
(§3) Here, µAB, µA, µB, and µControl are the mean growth rates for the combination, drug A, drug B, and control groups, respectively. As before, µv is the mean tumor growth rate for the vehicle group, which in most cases is the same as the control group. The standard error of the synergy score was calculated as the square root of the sum of squared standard errors across the four groups. The degrees of freedom were estimated using the Welch-Satterthwaite equation. A hypothesis test was performed to determine if the synergy score differed from 0. P-values were calculated by dividing the synergy score by its standard error and tested against a t-distribution (two-tailed) with the above-calculated degrees of freedom. A P value of less than 0.05 is statistically significant.
(§4) The combination results can be interpreted as follows. Statistically significant negative synergy scores indicate a synergistic combination (“Syn.”). Statistically significant positive synergy scores indicate a sub-additive combination (“Sub-add.”) when the combination performs better (i.e. has a lower growth rate) than the best performing single agent. Statistically significant positive synergy scores indicate an antagonistic combination (“Antag.”) when the combination performs worse than the best performing single agent. Scores that are not statistically significant should be considered additive (“Add.”).
NCI-H929 is a human multiple myeloma cell line. A NCI-H929 human xenograft tumor model was generated by subcutaneous inoculation with 1.0 × 10^7 NCI-H929 cells (cell suspension) in 7 weeks old female SCID mice (Vital River Laboratory Animal Technology Co., Ltd, Beijing, China) in the flank. When the mean tumor volume reached approximately 180 mm^3, the animals were randomized into one vehicle control and seven treatment groups (n=10/group). Mice were then dosed with 20% HPβCD or Compound I-263a or daratumumab over a 14-day period. Tumor growth and body weight were measured twice per week during the treatment and post-treatment periods, and mice were humanely euthanized once they had reached their humane endpoint.
A 1.5 mg/mL stock solution of I-263a was formulated weekly in 20% HPβCD and administered IV based on exact animal body weight on each day of treatment, using a dosing volume of 5 mL/kg body weight. Final dose I-263a received was 7.5 mg/kg. I-263a was administered on a BIW schedule for 2 weeks (Days 0, 3, 7, and 10). Daratumumab (anti-CD38 antibody) (Janssen Biotech, Inc., Horsham, PA) was stored at 4° C. according to manufacturer’s instructions. Final dose daratumumab received was 2.5 mg/kg, 7.5 mg/kg, and 20 mg/kg based on average body weight. Daratumumab was administered intraperitoneally (IP) using a 0.1 mL dosing volume, on a BIW schedule for 2 weeks (Days 0, 3, 7, and 10).
(§5) Tumors were measured twice weekly using Vernier calipers. Tumor volumes were calculated using standard equation: V = W^2 × L/2, where V = volume, W = width, and L = length for the tumor. When mean tumor volumes reached approximately 180 mm^3, mice were randomized into control and treatment groups. Mice were randomized into 8 groups (n=8/group) and dosed with vehicle (20% HPβCD), I-263a, daratumumab, or the combination of I-263a plus daratumumab at doses and schedules as described above. Tumor size and body weight were measured twice a week for the duration of the study. […]

[2] = tested on: RPMI-8226 human multiple myeloma cell line; test: Study 6: RPMI-8226 human multiple myeloma subcutaneous tumor model; type: in vivo, SCID mice; settings: for Tumor growth compared to vehicle-treated tumors (pairwise comparison): I-263a 7.5 mg/kg BIW 2 weeks, daratumumab 2.5, 7.5 or 20 mg/kg BIW 2 weeks, or both, p > 0.05; for GRI%: vs vehicle
[3] = tested on: Daudi human Burkitt’s Lymphoma cell line; test: Study 1: Daudi xenograft human Burkitt's lymphoma subcutaneous tumor model; type: in vivo, CB17 SCID mice; settings: for GRI%: vs vehicle; for Tumor growth relative to vehicle-treated tumors (pairwise comparison): I-263a 7.5 mg/kg BIW, daratumumab 7.5 mg/kg BIW or both, data up to Day 22, p < 0.001
Experimental: as §1, §2, §3, §4
Daudi is a human Burkitt’s Lymphoma cell line. A Daudi human xenograft tumor model was generated by subcutaneous inoculation with 2.0 […] 10^6 Daudi cells (cell suspension) in 6 weeks old female CB17 SCID mice (Charles River Laboratories, 251 Ballardvale St., Wilmington, MA) in the flank. When the mean tumor volume reached approximately 120 mm^3, the animals were randomized into one vehicle control and three treatment groups (n=8/group). Mice were then dosed with 20% HPβCD or Compound I-263a and/or daratumumab over a 21-day period. Tumor growth and body weight were measured twice per week during the treatment and post-treatment periods, and mice were humanely euthanized once they had reached their humane endpoint.
A 1.725 mg/mL and a 0.862 mg/mL stock solution of I-263a was formulated weekly in 20% HPβCD and administered intravenously (IV) based on an average body weight using a 0.2 mL dosing volume. Final doses I-263a received were 7.5 mg/kg. I-263a was administered on a BIW schedule for 3 weeks (Days 1, 4, 8, 11, 15, and 18). Daratumumab (anti-CD38 antibody) (Myoderm Medical Supplies, 48 E Main St., Norristown, PA 19401) was purchased at the beginning of the study and stored at 4° C. according to manufacturer’s instructions. Final dose daratumumab received was 7.5 mg/kg based on average body weight. Daratumumab was administered intraperitoneally (IP) using a 0.1 mL dosing volume, on a BIW schedule for 3 weeks (Days, 1, 4, 8, 11, 15, and 18).
as §5, with “W^2 x” for “W^2 ×”, “approximately 120” for “approximately 180”, “into 4” for “into 8”, “schedules” for “schedules as”, “above.” for “above. Tumor size and body weight were measured twice a week for the duration of the study.”

For `Cc1sc(C(=O)c2cncnc2N[C@@H]2C[C@H](COS(N)(=O)=O)[C@@H](O)C2)cc1[C@@H]1NCCc2ccc(Cl)cc21` [Compound I-263a, [(1R,2S,4R)-4-{[5-({4-[(1R)-7-chloro-1,2,3,4-tetrahydroisoquinolin-1-yl]-5-methyl-2-thienyl}carbonyl)pyrimidin-4-yl]amino}-2-hydroxycyclopentyl]methyl sulfamate], the “Tumor growth compared to vehicle (pairwise comparison)” value [1] was “not significantly different from vehicle”, the “Tumor volume on Day 14 (± SEM)” value ([1]; I-263a 7.5 mg/kg BIW IV) was 1763.8 ± 187.6 and the GRI% ([1]; I-263a 7.5 mg/kg BIW IV) was 6%. The “Tumor growth compared to vehicle-treated tumors (pairwise comparison)” value [2] was “not significantly different than vehicle-treated tumors”, the “Tumor volume on Day 20 (± SEM)” value ([2]; I-263a 7.5 mg/kg BIW IV) was 1763.2 ± 213.2 and the GRI% ([2]; I-263a 7.5 mg/kg BIW IV) was -12%. For the same compound, the “Tumor Volume on Day 22 (±SEM)” value ([3]; I-263a 7.5 mg/kg BIW IV) was 1509.4 ± 109.1, the GRI% ([3]; I-263a 7.5 mg/kg BIW IV) was 15% and the “Tumor growth relative to vehicle-treated tumors (pairwise comparison)” value [3] was “tumor growth inhibition”.
For “Daratumumab: immunoglobulin G1 kappa (IgG1κ) human monoclonal antibody against CD38 antigen”, the “Tumor volume on Day 14 (± SEM)” value ([1]; Daratumumab 2.5 mg/kg BIW IP) was 999.5 ± 187.7, the GRI% ([1]; Daratumumab 2.5 mg/kg BIW IP) was 37% and the “Tumor volume on Day 14 (± SEM)” value ([1]; Daratumumab 7.5 mg/kg BIW IP) was 838.3 ± 142.8. For the same compound, the GRI% ([1]; Daratumumab 7.5 mg/kg BIW IP) was 45%, the “Tumor volume on Day 14 (± SEM)” value ([1]; Daratumumab 20 mg/kg BIW IP) was 656.2 ± 127.2 and the GRI% ([1]; Daratumumab 20 mg/kg BIW IP) was 54%. For the same compound, the “Tumor growth compared to vehicle (pairwise comparison)” value [1] was “significantly inhibited tumor growth curves”, the “Tumor volume on Day 20 (± SEM)” value ([2]; Daratumumab 2.5 mg/kg BIW IP) was 1875.5 ± 170.1 and the GRI% ([2]; Daratumumab 2.5 mg/kg BIW IP) was -6%. The “Tumor volume on Day 20 (± SEM)” value ([2]; Daratumumab 7.5 mg/kg BIW IP) was 1510.7 ± 144.6, the GRI% ([2]; Daratumumab 7.5 mg/kg BIW IP) was -2% and the “Tumor volume on Day 20 (± SEM)” value ([2]; Daratumumab 20 mg/kg BIW IP) was 1456.6 ± 166.6. The GRI% ([2]; Daratumumab 20 mg/kg BIW IP) was 11%, the “Tumor growth compared to vehicle-treated tumors (pairwise comparison)” value [2] was “not significantly different than vehicle-treated tumors” and the “Tumor Volume on Day 22 (±SEM)” value ([3]; Daratumumab 7.5 mg/kg BIW IP) was 1043.9 ± 159.1. The GRI% ([3]; Daratumumab 7.5 mg/kg BIW IP) was 29% and the “Tumor growth relative to vehicle-treated tumors (pairwise comparison)” value [3] was “tumor growth inhibition”.
